Activity calls are given as the source filed them.
How the values were obtained:
[1] = target: T1, Tyrosine-protein phosphatase non-receptor type 7 (Homo sapiens, UniProt P35236); assay type: functional
T1 sequence (P35236 whole entry): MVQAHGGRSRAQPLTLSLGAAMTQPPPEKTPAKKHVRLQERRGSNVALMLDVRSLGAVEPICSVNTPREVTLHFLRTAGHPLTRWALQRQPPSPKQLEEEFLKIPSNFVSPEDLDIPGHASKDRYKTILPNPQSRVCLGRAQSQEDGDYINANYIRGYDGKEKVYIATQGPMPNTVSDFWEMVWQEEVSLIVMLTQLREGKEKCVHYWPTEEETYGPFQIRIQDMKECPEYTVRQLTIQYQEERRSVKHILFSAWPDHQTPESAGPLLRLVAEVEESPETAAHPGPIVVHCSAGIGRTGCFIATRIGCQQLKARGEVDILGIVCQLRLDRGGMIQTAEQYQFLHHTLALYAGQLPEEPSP

[2] = target: T2, Tyrosine-protein phosphatase non-receptor type 22 (Homo sapiens, UniProt Q9Y2R2); assay type: functional
T2 sequence (Q9Y2R2 whole entry): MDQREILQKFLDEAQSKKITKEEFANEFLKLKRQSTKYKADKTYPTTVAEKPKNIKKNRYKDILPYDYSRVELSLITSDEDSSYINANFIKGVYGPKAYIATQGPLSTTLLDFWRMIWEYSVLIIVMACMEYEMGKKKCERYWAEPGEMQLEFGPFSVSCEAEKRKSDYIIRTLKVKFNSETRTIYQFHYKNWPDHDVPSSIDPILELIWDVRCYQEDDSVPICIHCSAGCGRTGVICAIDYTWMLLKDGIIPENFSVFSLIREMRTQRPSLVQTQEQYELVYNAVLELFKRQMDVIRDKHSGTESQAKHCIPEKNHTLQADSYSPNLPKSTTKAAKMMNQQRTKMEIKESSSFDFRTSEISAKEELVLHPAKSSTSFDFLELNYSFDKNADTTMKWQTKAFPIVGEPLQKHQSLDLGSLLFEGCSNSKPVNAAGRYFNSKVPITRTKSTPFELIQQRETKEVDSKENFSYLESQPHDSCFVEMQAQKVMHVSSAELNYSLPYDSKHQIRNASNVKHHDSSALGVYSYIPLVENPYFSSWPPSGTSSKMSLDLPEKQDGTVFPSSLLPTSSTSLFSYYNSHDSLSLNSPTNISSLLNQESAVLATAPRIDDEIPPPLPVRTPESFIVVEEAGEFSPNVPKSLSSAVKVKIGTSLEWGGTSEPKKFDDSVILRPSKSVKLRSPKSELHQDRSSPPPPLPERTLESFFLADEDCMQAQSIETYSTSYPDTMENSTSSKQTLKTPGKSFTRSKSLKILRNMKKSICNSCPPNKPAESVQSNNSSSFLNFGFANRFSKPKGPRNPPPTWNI

[3] = target: T2, Tyrosine-protein phosphatase non-receptor type 22; assay type: functional; remark: listed apart in the source
[4] = target: T3, Delta-type opioid receptor (Homo sapiens, UniProt P41143); test: HTS Image-Based Screen for Antagonists of the DOR Receptor. [Related pubchem assays (depositor defined):AID1777, AID1785, AID1786, AID2133]; assay type: functional
T3 sequence (P41143 whole entry): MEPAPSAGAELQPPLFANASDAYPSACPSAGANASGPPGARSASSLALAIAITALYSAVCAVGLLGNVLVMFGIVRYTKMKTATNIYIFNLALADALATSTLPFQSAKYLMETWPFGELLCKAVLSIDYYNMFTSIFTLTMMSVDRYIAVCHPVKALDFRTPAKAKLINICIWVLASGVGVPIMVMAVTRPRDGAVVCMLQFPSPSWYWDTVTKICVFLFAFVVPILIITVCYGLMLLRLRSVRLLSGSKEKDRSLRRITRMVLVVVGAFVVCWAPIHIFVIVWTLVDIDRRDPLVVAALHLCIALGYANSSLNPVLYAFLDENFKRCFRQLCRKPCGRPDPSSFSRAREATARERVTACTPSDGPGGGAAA

[5] = luciferase reporter signal suppression in cells – H4 neuroglioma cells, luminescence, dose response (AID 1990); assay type: functional, cell-based
Mu-type opioid receptor = Mu-type opioid receptor (Homo sapiens, UniProt P35372); test: HTS Image-Based Screen for Agonists of the MOR Receptor. [Related pubchem assays (depositor defined):AID1777, AID1785, AID1786, AID2133]; assay type: functional;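 note: imaging of beta-arrestin GFP recruitment into spots after receptor activation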
Chain of Mu-type opioid receptor (P35372 whole entry): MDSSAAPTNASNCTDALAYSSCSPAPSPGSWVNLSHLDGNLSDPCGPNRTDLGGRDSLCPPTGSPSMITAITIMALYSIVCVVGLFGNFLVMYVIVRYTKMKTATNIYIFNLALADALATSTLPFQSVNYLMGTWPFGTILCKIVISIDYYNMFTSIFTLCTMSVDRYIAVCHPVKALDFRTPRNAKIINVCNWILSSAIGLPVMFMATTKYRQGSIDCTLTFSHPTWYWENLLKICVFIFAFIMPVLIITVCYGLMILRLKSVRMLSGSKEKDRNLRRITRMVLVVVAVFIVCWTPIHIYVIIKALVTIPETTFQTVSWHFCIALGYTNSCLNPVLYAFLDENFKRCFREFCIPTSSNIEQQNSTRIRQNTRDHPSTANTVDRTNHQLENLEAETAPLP

[6] = target: T3, Delta-type opioid receptor; test: HTS Image-Based Screen for Agonists of the DOR Receptor. [Related pubchem assays (depositor defined):AID1777, AID1786, AID2133]; assay type: functional
[7] = Luminescence Cell-Based Dose Response HTS to Identify Inhibitors of 5'UTR Stem-Loop Driven Prion Protein mRNA Translation in H4 Neuroglioblastoma Cells. [Related pubchem assays: 1827 (Project Summary), 1813 (Primary HTS)]; assay type: functional
[8] = alpha-synuclein stem-loop luciferase translation blockers – H4 neuroglioma cells, luminescence, confirmation (AID 1988); assay type: functional, cell-based
[9] = Trypanosoma cruzi growth suppression in host cells – NIH3T3 host cells, beta-gal luminescence, confirmation (AID 2044); assay type: functional, cell-based;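 note: intracellular parasites grown in NIH/3T3 mouse fibroblasts as host cells; luminescent beta-galactosidase reporter signal from transgenic T. cruzi replicating inside host cells; inhibitors lower the luminescence signal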
[10] = target: T4, Kappa-type opioid receptor (Homo sapiens, UniProt P41145); assay type: functional
T4 sequence (P41145 whole entry): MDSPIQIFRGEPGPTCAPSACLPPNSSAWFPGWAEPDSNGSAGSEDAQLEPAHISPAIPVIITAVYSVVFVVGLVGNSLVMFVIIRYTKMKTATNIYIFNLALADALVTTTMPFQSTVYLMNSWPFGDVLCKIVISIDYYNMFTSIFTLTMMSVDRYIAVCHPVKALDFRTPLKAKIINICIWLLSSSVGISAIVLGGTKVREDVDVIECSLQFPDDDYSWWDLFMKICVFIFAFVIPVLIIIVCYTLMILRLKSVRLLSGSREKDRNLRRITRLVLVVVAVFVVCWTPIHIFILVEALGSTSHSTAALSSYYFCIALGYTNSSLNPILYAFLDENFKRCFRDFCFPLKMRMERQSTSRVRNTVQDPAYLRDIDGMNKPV

[11] = NIH3T3 cell viability loss – ATP luminescence, mouse fibroblasts, counter-screen, dose response (AID 2010); assay type: functional, cell-based;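 note: cells exposed to compound for about 90 hours before reading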
Beta-galactosidase = Beta-galactosidase (Escherichia coli, UniProt Q8VNN2); assay type: functional
Chain of Beta-galactosidase (Q8VNN2 whole entry): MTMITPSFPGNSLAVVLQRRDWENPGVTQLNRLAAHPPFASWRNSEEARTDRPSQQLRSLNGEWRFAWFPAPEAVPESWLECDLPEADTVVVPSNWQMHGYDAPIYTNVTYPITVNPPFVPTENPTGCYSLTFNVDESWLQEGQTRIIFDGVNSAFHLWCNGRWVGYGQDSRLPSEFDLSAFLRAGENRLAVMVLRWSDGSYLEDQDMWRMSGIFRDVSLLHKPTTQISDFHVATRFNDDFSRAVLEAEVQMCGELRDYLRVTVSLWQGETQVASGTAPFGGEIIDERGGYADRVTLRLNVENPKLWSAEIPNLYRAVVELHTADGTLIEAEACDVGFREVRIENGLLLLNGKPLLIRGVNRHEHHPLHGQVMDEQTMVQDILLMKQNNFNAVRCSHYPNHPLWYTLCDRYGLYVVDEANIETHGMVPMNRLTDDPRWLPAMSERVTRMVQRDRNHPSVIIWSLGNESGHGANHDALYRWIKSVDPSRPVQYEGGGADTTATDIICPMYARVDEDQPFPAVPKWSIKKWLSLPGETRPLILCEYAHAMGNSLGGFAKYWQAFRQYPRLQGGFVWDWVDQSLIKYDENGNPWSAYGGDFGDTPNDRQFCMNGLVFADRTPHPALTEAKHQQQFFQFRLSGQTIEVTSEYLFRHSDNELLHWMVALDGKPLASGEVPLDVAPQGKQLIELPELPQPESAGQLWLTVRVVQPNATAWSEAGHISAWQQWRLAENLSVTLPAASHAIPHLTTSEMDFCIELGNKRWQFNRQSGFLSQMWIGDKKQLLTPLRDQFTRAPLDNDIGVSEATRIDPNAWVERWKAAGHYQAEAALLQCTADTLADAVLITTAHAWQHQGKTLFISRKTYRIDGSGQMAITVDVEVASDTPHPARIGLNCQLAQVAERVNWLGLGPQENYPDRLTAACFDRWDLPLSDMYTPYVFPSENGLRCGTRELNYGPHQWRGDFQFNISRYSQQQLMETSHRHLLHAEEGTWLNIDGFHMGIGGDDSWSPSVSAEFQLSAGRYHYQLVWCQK

[12] = target: T4, Kappa-type opioid receptor; assay type: functional; remark: listed apart in the source
[13] = target: G-protein coupled receptor 55 (Homo sapiens, UniProt Q9Y2T6); test: selective activators of receptor GPR55 – imaging, U2OS cells, beta-arrestin-GFP redistribution, primary screen (AID 1961); assay type: functional
Chain of G-protein coupled receptor 55 (Q9Y2T6 whole entry): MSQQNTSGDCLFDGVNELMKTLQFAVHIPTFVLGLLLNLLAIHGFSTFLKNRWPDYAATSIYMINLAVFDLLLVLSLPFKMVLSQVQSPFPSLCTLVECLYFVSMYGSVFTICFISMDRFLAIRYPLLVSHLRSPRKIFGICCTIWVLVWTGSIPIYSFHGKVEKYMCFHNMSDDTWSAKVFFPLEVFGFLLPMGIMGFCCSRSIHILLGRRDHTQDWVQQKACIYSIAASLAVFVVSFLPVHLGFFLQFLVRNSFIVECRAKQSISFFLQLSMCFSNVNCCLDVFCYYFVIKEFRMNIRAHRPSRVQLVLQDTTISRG

[14] = target: T5, Heat shock factor protein 1 (Mus musculus, UniProt P38532); test: enhancement of HSF1-driven luciferase signal – cell-based, NIH3T3, luminescence, dose retest, confirmation (AID 435004); assay type: functional;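 note: stress induced by proteasome inhibitor MG132 added 30 min after compound; luciferase reporter driven by HSF1 response element in NIH3T3 cells; actives raise luminescence as potentiators of the MG132 stress response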
T5 sequence (P38532 whole entry): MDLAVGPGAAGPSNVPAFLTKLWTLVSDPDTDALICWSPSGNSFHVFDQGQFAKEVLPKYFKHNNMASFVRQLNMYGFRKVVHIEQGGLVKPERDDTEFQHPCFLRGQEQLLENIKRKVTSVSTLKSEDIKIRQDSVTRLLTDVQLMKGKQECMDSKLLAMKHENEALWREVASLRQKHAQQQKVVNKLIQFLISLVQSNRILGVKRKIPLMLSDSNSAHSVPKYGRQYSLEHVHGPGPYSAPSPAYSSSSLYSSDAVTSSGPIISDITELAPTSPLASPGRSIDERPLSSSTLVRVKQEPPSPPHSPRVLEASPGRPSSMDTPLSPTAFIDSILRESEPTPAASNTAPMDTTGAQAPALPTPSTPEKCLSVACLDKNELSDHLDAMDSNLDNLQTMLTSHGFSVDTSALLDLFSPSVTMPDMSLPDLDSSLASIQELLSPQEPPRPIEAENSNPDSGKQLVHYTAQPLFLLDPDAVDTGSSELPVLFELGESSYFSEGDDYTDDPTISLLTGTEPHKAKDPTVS

[15] = target: T6, Microphthalmia-associated transcription factor (Homo sapiens, UniProt O75030); test: reducers of TRPM1 reporter luminescence, concentration series – cell-based, SK-MEL-5, cherry-picked, set 3, MITF inhibitor project, dose response (AID 493073); assay type: functional;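 note: SK-MEL-5 melanoma cells with luciferase driven by the MITF target TRPM1 promoter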
T6 sequence (O75030 whole entry): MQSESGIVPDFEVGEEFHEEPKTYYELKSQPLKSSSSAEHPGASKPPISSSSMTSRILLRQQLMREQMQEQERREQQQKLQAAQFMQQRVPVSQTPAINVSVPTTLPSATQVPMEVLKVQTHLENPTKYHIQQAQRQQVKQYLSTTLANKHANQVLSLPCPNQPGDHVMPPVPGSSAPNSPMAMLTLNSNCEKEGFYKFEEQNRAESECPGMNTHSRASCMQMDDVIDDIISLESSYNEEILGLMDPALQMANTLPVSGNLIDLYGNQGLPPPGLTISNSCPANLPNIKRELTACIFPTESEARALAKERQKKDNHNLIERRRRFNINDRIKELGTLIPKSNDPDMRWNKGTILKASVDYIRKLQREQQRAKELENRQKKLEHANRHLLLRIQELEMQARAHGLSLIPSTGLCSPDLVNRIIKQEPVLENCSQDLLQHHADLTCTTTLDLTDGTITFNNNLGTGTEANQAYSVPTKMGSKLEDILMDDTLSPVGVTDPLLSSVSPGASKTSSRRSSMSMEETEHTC

Structure (SMILES)	IC50 [1]	IC50 [2]	IC50 [3]	IC50 [4]	EC50 [5]	EC50 (Mu-type opioid receptor)	EC50 [6]	EC50 [7]	EC50 [8]	EC50 [9]	IC50 [10]	EC50 [11]	EC50 (Beta-galactosidase)	IC50 [12]	EC50 [13]	EC50 [14]	AC50 [15]
CCOC(=O)c1cnc2c(Cl)c(Cl)ccc2c1NCCN1CCOCC1	> 79.4 µM (inactive)	> 79.4 µM (inactive)	> 79.4 µM (inactive)	–	–	–	–	–	–	–	–	–	–	–	–	–	–
COc1ccc(C(=O)/C=C/C(=O)N(CC(=O)NC2CCCCC2)Cc2ccccc2)c(O)c1	–	–	–	> 32 µM (inactive)	> 60 µM (not active)	> 32 µM (inactive)	> 32 µM (inactive)	> 120 µM (not active)	9.06 µM (active)	1.64 µM (active)	4.97 µM (active)	> 60 µM (inconclusive)	> 31.5 µM (inactive)	8.34 µM	> 32 µM (inactive)	> 260 µM (inactive)	5.24 µM (active)
